Species on record: Rattus norvegicus
Assay: DrugMatrix - Regimen: Daily Repeat
Assay type: toxicity, organism-based, Sprague-Dawley
Design: regimen Daily Repeat, gender Male, age 6-8 weeks
Settings: in vivo, po, route oral GAVAGE, vehicle .5 % CMC; for BASOPHIL / EOSINOPHIL / ERYTHROCYTE COUNT / HEMATOCRIT / HEMOGLOBIN / LEUKOCYTE COUNT / LYMPHOCYTE / MEAN CORPUSCULAR HEMOGLOBIN / MEAN CORPUSCULAR HEMOGLOBIN CONCENTRATION / MEAN CORPUSCULAR VOLUME / MONOCYTE / NEUTROPHIL / PLATELET COUNT: tissue Blood; for ALANINE AMINOTRANSFERASE / ALBUMIN / ALKALINE PHOSPHATASE / ASPARTATE AMINOTRANSFERASE / BLOOD UREA NITROGEN / CHLORIDE / CHOLESTEROL / CREATINE PHOSPHOKINASE / CREATININE / GLUCOSE / PHOSPHORUS / POTASSIUM / SODIUM / TOTAL BILIRUBIN / TOTAL PROTEIN: tissue Plasma
[1] = 0 mg/kg, 72 h, dose level Control, time 3 day
[2] = 0 mg/kg, 120 h, dose level Control, time 5 day
[3] = 10 mg/kg, 72 h, dose level Low, time 3 day
[4] = 10 mg/kg, 120 h, dose level Low, time 5 day
[5] = 1500 mg/kg, 72 h, dose level High, time 3 day
[6] = 1500 mg/kg, 120 h, dose level High, time 5 day

Q: What does the source list for COc1ccc(Cl)cc1C(=O)NCCc1ccc(S(=O)(=O)NC(=O)NC2CCCCC2)cc1 [GLYBURIDE]?
A: BASOPHIL [1]: 0%; EOSINOPHIL [1]: 0%; ERYTHROCYTE COUNT [1]: 6.34 x10E6/uL; HEMATOCRIT [1]: 37.62%; HEMOGLOBIN [1]: 14.82 G/DL; LEUKOCYTE COUNT [1]: 11.18 x10E3/uL; LYMPHOCYTE [1]: 87.5%; MEAN CORPUSCULAR HEMOGLOBIN [1]: 23.48 pg; MEAN CORPUSCULAR HEMOGLOBIN CONCENTRATION [1]: 39.5 G/DL; MEAN CORPUSCULAR VOLUME [1]: 59.45 fL; MONOCYTE [1]: 1.67%; NEUTROPHIL [1]: 10.83%; PLATELET COUNT [1]: 1074.83 x10E3/uL; ALANINE AMINOTRANSFERASE [1]: 36.5 u/L; ALBUMIN [1]: 3.9 G/DL; ALKALINE PHOSPHATASE [1]: 370.17 u/L; ASPARTATE AMINOTRANSFERASE [1]: 63.17 u/L; BLOOD UREA NITROGEN [1]: 16.83 mg/dL; CHLORIDE [1]: 99.33 MEQ/L; CHOLESTEROL [1]: 64.33 mg/dL; CREATINE PHOSPHOKINASE [1]: 127 u/L; CREATININE [1]: 0.55 mg/dL; GLUCOSE [1]: 173.5 mg/dL; PHOSPHORUS [1]: 10.08 mg/dL; POTASSIUM [1]: 6.23 MEQ/L; SODIUM [1]: 143.5 MEQ/L; TOTAL BILIRUBIN [1]: 0.52 mg/dL; TOTAL PROTEIN [1]: 6.35 G/DL; BASOPHIL [2]: 0%; EOSINOPHIL [2]: 0.17%; ERYTHROCYTE COUNT [2]: 6.12 x10E6/uL; HEMATOCRIT [2]: 37.08%; HEMOGLOBIN [2]: 14.82 G/DL; LEUKOCYTE COUNT [2]: 11.87 x10E3/uL; LYMPHOCYTE [2]: 83.33%; MEAN CORPUSCULAR HEMOGLOBIN [2]: 24.25 pg; MEAN CORPUSCULAR HEMOGLOBIN CONCENTRATION [2]: 39.97 G/DL; MEAN CORPUSCULAR VOLUME [2]: 60.65 fL; MONOCYTE [2]: 1.5%; NEUTROPHIL [2]: 15%; PLATELET COUNT [2]: 1042.83 x10E3/uL; ALANINE AMINOTRANSFERASE [2]: 46 u/L; ALBUMIN [2]: 3.82 G/DL; ALKALINE PHOSPHATASE [2]: 369.5 u/L; ASPARTATE AMINOTRANSFERASE [2]: 65 u/L; BLOOD UREA NITROGEN [2]: 16.33 mg/dL; CHLORIDE [2]: 100.67 MEQ/L; CHOLESTEROL [2]: 57.17 mg/dL; CREATINE PHOSPHOKINASE [2]: 130 u/L; CREATININE [2]: 0.53 mg/dL; GLUCOSE [2]: 163.33 mg/dL; PHOSPHORUS [2]: 9.53 mg/dL; POTASSIUM [2]: 6.27 MEQ/L; SODIUM [2]: 144.83 MEQ/L; TOTAL BILIRUBIN [2]: 0.55 mg/dL; TOTAL PROTEIN [2]: 6.32 G/DL; BASOPHIL [3]: 0%; EOSINOPHIL [3]: 0.33%; ERYTHROCYTE COUNT [3]: 6.67 x10E6/uL; HEMATOCRIT [3]: 40.2%; HEMOGLOBIN [3]: 15.57 G/DL; LEUKOCYTE COUNT [3]: 12.13 x10E3/uL; LYMPHOCYTE [3]: 90.33%; MEAN CORPUSCULAR HEMOGLOBIN [3]: 23.33 pg; MEAN CORPUSCULAR HEMOGLOBIN CONCENTRATION [3]: 38.7 G/DL; MEAN CORPUSCULAR VOLUME [3]: 60.3 fL; MONOCYTE [3]: 1.33%; NEUTROPHIL [3]: 8%; PLATELET COUNT [3]: 1148 x10E3/uL; ALANINE AMINOTRANSFERASE [3]: 30.33 u/L; ALBUMIN [3]: 4.1 G/DL; ALKALINE PHOSPHATASE [3]: 317.67 u/L; ASPARTATE AMINOTRANSFERASE [3]: 61 u/L; BLOOD UREA NITROGEN [3]: 15 mg/dL; CHLORIDE [3]: 99.33 MEQ/L; CHOLESTEROL [3]: 66.33 mg/dL; CREATINE PHOSPHOKINASE [3]: 164.67 u/L; CREATININE [3]: 0.5 mg/dL; GLUCOSE [3]: 160.33 mg/dL; PHOSPHORUS [3]: 11.87 mg/dL; POTASSIUM [3]: 6.23 MEQ/L; SODIUM [3]: 144.67 MEQ/L; TOTAL BILIRUBIN [3]: 0.3 mg/dL; TOTAL PROTEIN [3]: 6.77 G/DL; BASOPHIL [4]: 0%; EOSINOPHIL [4]: 0%; ERYTHROCYTE COUNT [4]: 6.4 x10E6/uL; HEMATOCRIT [4]: 37.3%; HEMOGLOBIN [4]: 14.67 G/DL; LEUKOCYTE COUNT [4]: 11.77 x10E3/uL; LYMPHOCYTE [4]: 91.67%; MEAN CORPUSCULAR HEMOGLOBIN [4]: 22.97 pg; MEAN CORPUSCULAR HEMOGLOBIN CONCENTRATION [4]: 39.33 G/DL; MEAN CORPUSCULAR VOLUME [4]: 58.27 fL; MONOCYTE [4]: 0.67%; NEUTROPHIL [4]: 7.67%; PLATELET COUNT [4]: 1048 x10E3/uL; ALANINE AMINOTRANSFERASE [4]: 33 u/L; ALBUMIN [4]: 3.77 G/DL; ALKALINE PHOSPHATASE [4]: 328 u/L; ASPARTATE AMINOTRANSFERASE [4]: 52.33 u/L; BLOOD UREA NITROGEN [4]: 13.67 mg/dL; CHLORIDE [4]: 98.33 MEQ/L; CHOLESTEROL [4]: 53.33 mg/dL; CREATINE PHOSPHOKINASE [4]: 128.67 u/L; CREATININE [4]: 0.57 mg/dL; GLUCOSE [4]: 174 mg/dL; PHOSPHORUS [4]: 10.77 mg/dL; POTASSIUM [4]: 5.8 MEQ/L; SODIUM [4]: 144.33 MEQ/L; TOTAL BILIRUBIN [4]: 0.37 mg/dL; TOTAL PROTEIN [4]: 6.13 G/DL; BASOPHIL [5]: 0%; EOSINOPHIL [5]: 0%; ERYTHROCYTE COUNT [5]: 6.36 x10E6/uL; HEMATOCRIT [5]: 37.7%; HEMOGLOBIN [5]: 14.87 G/DL; LEUKOCYTE COUNT [5]: 13.87 x10E3/uL; LYMPHOCYTE [5]: 88.67%; MEAN CORPUSCULAR HEMOGLOBIN [5]: 23.43 pg; MEAN CORPUSCULAR HEMOGLOBIN CONCENTRATION [5]: 39.47 G/DL; MEAN CORPUSCULAR VOLUME [5]: 59.33 fL; MONOCYTE [5]: 1%; NEUTROPHIL [5]: 10.33%; PLATELET COUNT [5]: 1260.33 x10E3/uL; ALANINE AMINOTRANSFERASE [5]: 32 u/L; ALBUMIN [5]: 3.4 G/DL; ALKALINE PHOSPHATASE [5]: 223.33 u/L; ASPARTATE AMINOTRANSFERASE [5]: 50 u/L; BLOOD UREA NITROGEN [5]: 12 mg/dL; CHLORIDE [5]: 104.33 MEQ/L; CHOLESTEROL [5]: 52.67 mg/dL; CREATINE PHOSPHOKINASE [5]: 133.33 u/L; CREATININE [5]: 0.4 mg/dL; GLUCOSE [5]: 122.67 mg/dL; PHOSPHORUS [5]: 9.57 mg/dL; POTASSIUM [5]: 6.9 MEQ/L; SODIUM [5]: 150.33 MEQ/L; TOTAL BILIRUBIN [5]: 0.23 mg/dL; TOTAL PROTEIN [5]: 5.47 G/DL; BASOPHIL [6]: 0%; EOSINOPHIL [6]: 0%; ERYTHROCYTE COUNT [6]: 6.13 x10E6/uL; HEMATOCRIT [6]: 36.93%; HEMOGLOBIN [6]: 14.7 G/DL; LEUKOCYTE COUNT [6]: 14.7 x10E3/uL; LYMPHOCYTE [6]: 94.33%; MEAN CORPUSCULAR HEMOGLOBIN [6]: 24.03 pg; MEAN CORPUSCULAR HEMOGLOBIN CONCENTRATION [6]: 39.8 G/DL; MEAN CORPUSCULAR VOLUME [6]: 60.3 fL; MONOCYTE [6]: 0.67%; NEUTROPHIL [6]: 5%; PLATELET COUNT [6]: 1089.67 x10E3/uL; ALANINE AMINOTRANSFERASE [6]: 37 u/L; ALBUMIN [6]: 3.67 G/DL; ALKALINE PHOSPHATASE [6]: 297.33 u/L; ASPARTATE AMINOTRANSFERASE [6]: 58.33 u/L; BLOOD UREA NITROGEN [6]: 12.67 mg/dL; CHLORIDE [6]: 99.67 MEQ/L; CHOLESTEROL [6]: 63.33 mg/dL; CREATINE PHOSPHOKINASE [6]: 139.33 u/L; CREATININE [6]: 0.5 mg/dL; GLUCOSE [6]: 135 mg/dL; PHOSPHORUS [6]: 11.5 mg/dL; POTASSIUM [6]: 6.2 MEQ/L; SODIUM [6]: 145.33 MEQ/L; TOTAL BILIRUBIN [6]: 0.33 mg/dL; TOTAL PROTEIN [6]: 5.93 G/DL

Reference: ChEMBL document CHEMBL3885881, “DrugMatrix”
